Laboratory results: the supplement of paper PMC10627819

What was measured:
B. subtilis 168 [1] = experiment: fitness (endpoint OD595 vs no drug) (fraction); higher = more growth
Outline: (§1)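 Growth medium was TSB, LB Lennox or CY, and plates were kept at 37 °C. Inoculation was at OD595 0.01 in 384-well plates, at 30 µl per well or 55 µl for S. pneumoniae. OD595 was monitored every 30 min for 14 h and background-subtracted using the first reading. Fitness is the optical density on entering stationary phase divided by the robust mean of no-drug controls, with values capped at 1.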

S. aureus DSM 20231 [2] = experiment: as above
Outline: as §1

S. aureus Newman [3] = experiment: as above
Outline: as §1

S. pneumoniae D39V [4] = experiment: as above
Outline: as §1

B. subtilis 168 [5] = experiment: Bliss interaction score (quartile over a dose matrix) (fitness difference); higher = more antagonism (negative = synergy)
Outline: (§2)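 The Bliss score is observed fitness minus expected fitness, where the expected value is the product of single-drug fitness values inferred from combination data. Fitness is OD595 at entry into stationary phase normalised to the plate's robust no-drug mean and capped at 1. Scores are reported as quartiles spanning technical, biological and donor/recipient replicates.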

S. aureus DSM 20231 [6] = experiment: as above
Outline: as §2

S. aureus Newman [7] = experiment: as above
Outline: as §2

S. pneumoniae D39V [8] = experiment: as above
Outline: as §2
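For Bliss interaction score (quartile over a dose matrix) in this document: first quartile when negative (synergy) and third quartile when positive (antagonism).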
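For fitness (endpoint OD595 vs no drug) in this document: OD595 on entry to stationary phase over no-drug wells; at most 1.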

Cc1onc(-c2ccccc2)c1C(=O)N[C@@H]1C(=O)N2[C@@H]1SC(C)(C)[C@@H]2C(=O)O [Oxacillin] + Cc1cc(NS(=O)(=O)c2ccc(N)cc2)no1 [Sulfamethoxazol]
fitness
Conditions | partner 1 µg/mL | partner 2 µg/mL | partner 4 µg/mL
B. subtilis 168 [1], first compound 0.002 µg/mL | 0.996 | 0.968 | ≥ 1
B. subtilis 168 [1], first compound 0.004 µg/mL | 0.988 | 0.947 | 0.984
B. subtilis 168 [1], first compound 0.008 µg/mL | 0.93 | 0.929 | 0.915
S. aureus DSM 20231 [2], first compound 0.0156 µg/mL | 0.795 | 0.865 | 0.866
S. aureus DSM 20231 [2], first compound 0.0312 µg/mL | 0.636 | 0.65 | 0.719
S. aureus DSM 20231 [2], first compound 0.0625 µg/mL | 0.469 | 0.462 | 0.485
S. aureus Newman [3], first compound 0.0156 µg/mL | 0.748 | 0.686 | –
S. aureus Newman [3], first compound 0.0312 µg/mL | 0.758 | 0.688 | –
S. aureus Newman [3], first compound 0.0625 µg/mL | 0.63 | 0.624 | 0.556
S. pneumoniae D39V [4], first compound 0.01 µg/mL | 0.954 | 0.961 | 0.966
S. pneumoniae D39V [4], first compound 0.02 µg/mL | 0.888 | 0.904 | 0.915
S. pneumoniae D39V [4], first compound 0.04 µg/mL | 0.273 | 0.32 | 0.395

one replicate
Conditions | fitness
B. subtilis 168 [1], first compound 0.0078 µg/mL, partner 0.5 µg/mL | 0.943
B. subtilis 168 [1], first compound 0.0078 µg/mL, partner 1 µg/mL | 0.864
B. subtilis 168 [1], first compound 0.0078 µg/mL, partner 2 µg/mL | 0.896
B. subtilis 168 [1], first compound 0.0155 µg/mL, partner 0.5 µg/mL | 0.997
B. subtilis 168 [1], first compound 0.0155 µg/mL, partner 1 µg/mL | 0.755
B. subtilis 168 [1], first compound 0.0155 µg/mL, partner 2 µg/mL | 0.877
B. subtilis 168 [1], first compound 0.031 µg/mL, partner 0.5 µg/mL | 0.921
B. subtilis 168 [1], first compound 0.031 µg/mL, partner 1 µg/mL | 0.9
B. subtilis 168 [1], first compound 0.031 µg/mL, partner 2 µg/mL | 0.866
B. subtilis 168 [1], first compound 0.075 µg/mL, partner 1 µg/mL | 0.49
B. subtilis 168 [1], first compound 0.075 µg/mL, partner 2 µg/mL | 0.454
B. subtilis 168 [1], first compound 0.075 µg/mL, partner 4 µg/mL | 0.529
B. subtilis 168 [1], first compound 0.15 µg/mL, partner 1 µg/mL | 0.0391
B. subtilis 168 [1], first compound 0.15 µg/mL, partner 2 µg/mL | 0.0283
B. subtilis 168 [1], first compound 0.15 µg/mL, partner 4 µg/mL | 0.0224
B. subtilis 168 [1], first compound 0.3 µg/mL, partner 1 µg/mL | 0.0079
B. subtilis 168 [1], first compound 0.3 µg/mL, partner 2 µg/mL | 0.0431
B. subtilis 168 [1], first compound 0.3 µg/mL, partner 4 µg/mL | 0.0098
S. aureus Newman [3], first compound 0.0156 µg/mL, partner 8 µg/mL | 0.9
S. aureus Newman [3], first compound 0.0312 µg/mL, partner 8 µg/mL | 0.845
S. aureus Newman [3], first compound 0.0625 µg/mL, partner 8 µg/mL | 0.783

Conditions | Bliss interaction score
B. subtilis 168 [5] | 0.0542
S. aureus DSM 20231 [6] | -0.0464
S. aureus Newman [7] | -0.0519
S. pneumoniae D39V [8] | 0.0796

C[n+]1ccc(-c2cc[n+](C)cc2)cc1 [Paraquat] + CC1=C\[C@@H](O)CC(=O)Cc2nc(co2)C(=O)N2CCC=C2C(=O)O[C@H](C(C)C)[C@H](C)/C=C/C(=O)NC\C=C\1 [Virginiamycin M1]
fitness
Conditions | first compound 1.25 µg/mL | first compound 1.5 µg/mL | first compound 2.5 µg/mL | first compound 3 µg/mL | first compound 5 µg/mL | first compound 6 µg/mL
B. subtilis 168 [1], partner 0.0625 µg/mL | 0.951 | – | 0.934 | – | 0.819 | –
B. subtilis 168 [1], partner 0.125 µg/mL | 0.918 | – | 0.934 | – | 0.856 | –
B. subtilis 168 [1], partner 0.25 µg/mL | 0.93 | – | 0.95 | – | 0.893 | –
S. aureus DSM 20231 [2], partner 0.0625 µg/mL | 0.912 | – | 0.897 | – | 0.872 | –
S. aureus DSM 20231 [2], partner 0.125 µg/mL | 0.967 | – | 0.981 | – | 0.936 | –
S. aureus DSM 20231 [2], partner 0.25 µg/mL | 0.935 | – | 0.882 | – | 0.934 | –
S. pneumoniae D39V [4], partner 0.5 µg/mL | – | 0.987 | – | 0.988 | – | 0.991
S. pneumoniae D39V [4], partner 1 µg/mL | – | 0.991 | – | 0.978 | – | 0.967
S. pneumoniae D39V [4], partner 2 µg/mL | – | 0.937 | – | 0.93 | – | 0.897

fitness, one replicate
Conditions | first compound 1.25 µg/mL | first compound 1.5 µg/mL | first compound 2.5 µg/mL | first compound 3 µg/mL | first compound 5 µg/mL | first compound 6 µg/mL
S. aureus DSM 20231 [2], partner 0.5 µg/mL | 0.831 | – | 0.901 | – | 0.858 | –
S. aureus DSM 20231 [2], partner 1 µg/mL | 0.781 | – | 0.848 | – | 0.898 | –
S. aureus Newman [3], partner 0.0625 µg/mL | 0.883 | – | 0.93 | – | 0.863 | –
S. aureus Newman [3], partner 0.125 µg/mL | 0.885 | – | 0.934 | – | 0.894 | –
S. aureus Newman [3], partner 0.25 µg/mL | 0.868 | – | 0.9 | – | 0.929 | –
S. aureus Newman [3], partner 0.5 µg/mL | 0.862 | – | 0.852 | – | 0.908 | –
S. aureus Newman [3], partner 1 µg/mL | 0.949 | – | 0.959 | – | 0.971 | –
S. aureus Newman [3], partner 2 µg/mL | 0.862 | – | 0.848 | – | 0.855 | –
S. pneumoniae D39V [4], partner 0.15 µg/mL | – | ≥ 1 | – | ≥ 1 | – | 0.975
S. pneumoniae D39V [4], partner 0.3 µg/mL | – | ≥ 1 | – | ≥ 1 | – | 0.948

Conditions | Bliss interaction score
B. subtilis 168 [5] | 0.0473
S. aureus DSM 20231 [6] | 0.0744
S. aureus Newman [7] | 0.0334
S. pneumoniae D39V [8] | -0.0275
